The values below are quoted from earlier work in the CATMoS acute toxicity set (Mansouri et al. 2021).

Structures are written as SMILES. Values joined by “and” are separate entries in the source; they are usually repeats but may differ in a detail not shown here. Equal values may be shown once.

A short description of the series: rat acute oral toxicity. The following applies: in vivo.
Usually LD50 stands for the dose at which mortality reaches 50%. For the molecule `CC(C)NNC(=O)COc1ccc(Cl)cc1`, the LD50 was 550 mg/kg.

For the molecule `C=C(C)C1CCC(C)(OP(=S)(OC)OC)CC1` (centres undefined), the LD50 is 500 mg/kg.

In the case of `COC(=O)c1ccc(N=NN(C)C)cc1`, the LD50 was 52 mg/kg.

For the molecule `CCC(=O)c1ccc2c(c1)N(CC(C)N(C)C)c1ccccc1S2` (centres undefined), the LD50 is 500 mg/kg.

Consider `CN(C)CC/C=C1\c2ccccc2CSc2ccccc21`, for which the LD50 is 450 mg/kg.

As for `CC(C)c1ccc(C#N)cc1`, the LD50 is 3900 mg/kg.

Consider `Cc1cccc(C)c1Nc1ncccc1C(=O)O`, for which the LD50 is 2.3 mg/kg.

`COC(=O)OC`: the LD50 was 13000 mg/kg.

For the molecule `O[C@@H]([C@H](O)[C@H](O)CBr)[C@H](O)CBr`, the 50% lethal dose (LD50) is 1500 mg/kg.

Consider `CC(=O)OCC=Cc1ccccc1`, for which the LD50 is 3300 mg/kg.

Turning to `COc1ccc(/C=C/C(=O)Nc2ccccc2C(=O)O)cc1OC`, the 50% lethal dose (LD50) was 1100 mg/kg.

As to `CCCOC(=O)Nc1ccco1`, the 50% lethal dose (LD50) was 1600 mg/kg.

On to `FC(F)(F)c1nc2c(Br)cc(Cl)cc2[nH]1`, for which the LD50 was 7.18 mg/kg.

As to `CC[C@H]1CN2CCc3cc(OC)c(OC)cc3[C@@H]2C[C@@H]1C[C@H]1NCCc2cc(OC)c(OC)cc21`, the 50% lethal dose (LD50) was 0.012 mg/kg.

Consider `COC(C)CC(OC)OC` (centres undefined), for which the LD50 is 1480 mg/kg.

Consider `C=CCI`, for which the median lethal dose (LD50) is 10 mg/kg.

As for `OC1(c2cccc(Cl)c2)c2ccccc2C2=NCCN21` (centres undefined), the 50% lethal dose (LD50) was 200 mg/kg.

Take `O=[N+]([O-])c1cccc(C(F)(F)F)c1`: the 50% lethal dose (LD50) is 610 mg/kg.

As for `CN(C)CCCN1c2ccccc2Sc2ccccc21`, the LD50 is 350 mg/kg and 400 mg/kg.

Take `CN1CCN(C2=Nc3ccccc3Sc3ccc(Cl)cc32)CC1`: the 50% lethal dose (LD50) was 280 mg/kg.

Take `CC(=O)C(c1ccccc1)N1CCN(CCOc2ccccc2)CC1` (centres undefined): the LD50 is 800 mg/kg.

Consider `CCCC(=O)OC(Cl)C(Cl)(Cl)Cl` (centres undefined), for which the LD50 was 1480 mg/kg.

For `O=C1CCCN1CCO`, the 50% lethal dose (LD50) was 14400 mg/kg.

In the case of `COc1ccc2c(c1)OC(C)(C)[C@H](c1ccccc1)[C@H]2c1ccc(OCCN2CCCC2)cc1` (racemic), the LD50 was 800 mg/kg.

`CC(C)=C1C(=O)N(c2ccccc2)N(c2ccccc2)C1=O`: the LD50 is 1280 mg/kg.

Regarding `CCCc1cc(C(N)=S)ccn1`, the LD50 is 1320 mg/kg.

On to `NC(=O)ON=C1CSCCS1`, for which the LD50 was 52 mg/kg.

Consider `CN(C/C=C/C#CC(C)(C)C)Cc1cccc2ccccc12`, for which the LD50 was 4000 mg/kg.

On to `O=C(Cl)c1cccc(C(=O)Cl)c1`, for which the median lethal dose (LD50) is 2200 mg/kg.

On to `CCCOc1cc(C=CC(=S)OCC)ccc1OC`, for which the median lethal dose (LD50) is 970 mg/kg.

Take `C=CCOCC(CC)(CO)COCC=C`: the 50% lethal dose (LD50) is 6500 mg/kg.

Consider `CC1COC2(c3ccccc3Cl)c3cc(Cl)ccc3NC(=O)CN12` (centres undefined), for which the LD50 was 4500 mg/kg.

With `CN(C)CCN(Cc1ccsc1)c1ccccn1`, the LD50 is 525 mg/kg.

Regarding `CCC1CN2CCC1CC2C(O)c1ccnc2ccc(OC)cc12` (centres undefined), the 50% lethal dose (LD50) is 369 mg/kg.

With `N#CCCl`, the 50% lethal dose (LD50) is 220 mg/kg.

Take `ClC1=C(Cl)C2(Cl)C(Cl)=C(Cl)C3C1C(Cl)CC32` (centres undefined): the 50% lethal dose (LD50) is 10200 mg/kg.

On to `Cc1ccc(S(=O)(=O)O)cc1`, for which the LD50 is 2570 mg/kg.

As for `C1CCCC1`, the LD50 was 11400 mg/kg.

For `CSC(C)=NOC(=O)N(C)SN(C(C)C)P1(=S)OCCCO1`, the LD50 is 600 mg/kg.

As for `CCOCN(C(=O)CCl)c1c(C)cccc1OC(C)C`, the LD50 was 2700 mg/kg.

On to `CN1c2ccccc2Sc2ccc(CC(=O)O)cc21`, for which the 50% lethal dose (LD50) is 495 mg/kg.

Turning to `CCCCCCOC(C[n+]1ccccc1)c1ccc(C2CCCCC2)cc1` (centres undefined), the median lethal dose (LD50) is 250 mg/kg.

Turning to `COP(=S)(OC)SCSc1cc(Cl)cc(Cl)c1`, the median lethal dose (LD50) is 443 mg/kg.

As to `CC(C)NCC(O)c1ccccc1Cl` (centres undefined), the LD50 is 450 mg/kg and 445 mg/kg.

In the case of `CC(C)(CO)S(C)(=O)=O`, the 50% lethal dose (LD50) is 11300 mg/kg.

As to `CCCC(=O)OC(=C(Cl)Cl)P(=O)(OC)OC`, the LD50 is 1100 mg/kg.

Consider `CC[N+]1(C)CCCC(OC(=O)C(O)(c2ccccc2)c2ccccc2)C1` (centres undefined), for which the LD50 was 916 mg/kg and 850 mg/kg.

Regarding `ClC1=C(Cl)[C@]2(Cl)[C@H]3[C@H]([C@H]4C=C[C@H]3C4)[C@@]1(Cl)C2(Cl)Cl`, the 50% lethal dose (LD50) is 7 mg/kg.

`CCOP(=O)(OCC)Sc1ccc([N+](=O)[O-])cc1`: the LD50 was 4.41 mg/kg.

Consider `CC(C)Oc1cccc(C2CC(=O)NC2=O)c1` (centres undefined), for which the LD50 was 2400 mg/kg.

Regarding `CNC(N)=NC(=N)N`, the median lethal dose (LD50) is 1750 mg/kg.

As to `CC(C)=NNC(N)=S`, the LD50 is 48.5 mg/kg.

Turning to `C#CCBr`, the LD50 was 53 mg/kg.

As for `Cc1ccc(C(=O)c2ccccc2)c(C(=O)O)c1`, the 50% lethal dose (LD50) was 5600 mg/kg.

Consider `Cc1nc2n(c(=O)c1CCN1CCC(c3noc4cc(F)ccc34)CC1)CCCC2`, for which the 50% lethal dose (LD50) is 56.6 mg/kg.

With `Fc1ccc(C(c2ccc(F)cc2)N2CCN(C/C=C/c3ccccc3)CC2)cc1`, the LD50 was 503 mg/kg.

Regarding `CN(C)N=Nc1ccc(F)cc1`, the 50% lethal dose (LD50) is 326 mg/kg.

Take `CC(=O)OCC(C)O` (centres undefined): the LD50 was 18000 mg/kg.

Turning to `CCOP(=S)(OCC)Oc1cnc2ccccc2n1`, the median lethal dose (LD50) was 26 mg/kg.

`CN(C)CCn1c2ccccc2c(=O)c2c([N+](=O)[O-])cccc21`: the 50% lethal dose (LD50) was 41 mg/kg.

Regarding `CCCCOC(=O)CC(C(=O)OCCCC)P(=O)(OCCCC)OCCCC` (centres undefined), the 50% lethal dose (LD50) is 25000 mg/kg.

As to `CCOC(=O)Nc1cccc2c1CN(C)CC2c1ccc(Cl)cc1` (centres undefined), the median lethal dose (LD50) was 665 mg/kg.

On to `COCCOC(C)OCCOC`, for which the LD50 was 3260 mg/kg.

For the molecule `Clc1nc(Cl)c(Cl)[nH]1`, the 50% lethal dose (LD50) was 11 mg/kg.

For `Cc1cc(C(C#N)c2ccc(Cl)cc2)c(Cl)cc1NC(=O)c1cc(I)cc(I)c1O` (centres undefined), the LD50 is 262 mg/kg.

Take `COc1ccc(C(=C(C#N)CCC(=O)O)c2ccc(OC)cc2)cc1`: the LD50 was 337 mg/kg.

As for `Oc1ccc(C(c2ccc(O)cc2)c2ccccn2)cc1`, the LD50 was 8550 mg/kg.

In the case of `C=C1CC[C@H](O)C/C1=C/C=C1\CCC[C@]2(C)[C@@H]([C@H](C)CCCC(C)C)CC[C@@H]12`, the LD50 was 42 mg/kg.

`CCC1(C)CC(=O)NC1=O` (centres undefined): the 50% lethal dose (LD50) is 1820 mg/kg.

Consider `CCC(C)(C)/N=C(\NC#N)Nc1cccnc1`, for which the 50% lethal dose (LD50) was 14 mg/kg.

`CCN(CC)C(C)CN1c2ccccc2Sc2ccccc21` (centres undefined): the 50% lethal dose (LD50) is 1700 mg/kg.

`Fc1ccc(C(c2ccccc2)(c2ccccc2F)n2ccnc2)cc1` (centres undefined): the LD50 is 808 mg/kg.

For the molecule `COP(=S)(OC)Oc1cc(Cl)c(I)cc1Cl`, the LD50 was 2330 mg/kg.

In the case of `CC(NN)c1ccccc1` (centres undefined), the LD50 is 458 mg/kg.

As for `CCCCSC(=Nc1cccnc1)SCc1ccc(C(C)(C)C)cc1`, the median lethal dose (LD50) was 2700 mg/kg.

`CCOP(=S)(CCl)Sc1ccc(C)cc1` (centres undefined): the LD50 is 336 mg/kg.

Take `N#C[Se]Cc1ccccc1`: the 50% lethal dose (LD50) was 98.5 mg/kg.

As for `CCC(OC(C)=O)C(CC(C)NC)(c1ccccc1)c1ccccc1` (centres undefined), the median lethal dose (LD50) is 44 mg/kg.

Regarding `CCCSP(=O)(OCC)Oc1ccc(Sc2ccc(Cl)cc2)cc1` (centres undefined), the LD50 was 690 mg/kg.

For `O=C(CCl)CCl`, the median lethal dose (LD50) was 20 mg/kg.

As for `Cc1ccc(N)c(S(=O)(=O)O)c1`, the LD50 is 11700 mg/kg.

As to `CCOC=C(C(=O)OCC)C(=O)OCC`, the LD50 was 925 mg/kg.

Take `OC1(c2ccc(Cl)c(C(F)(F)F)c2)CCN(CCCC(c2ccc(F)cc2)c2ccc(F)cc2)CC1`: the LD50 was 160 mg/kg.

For the molecule `O=C(O)C(O)(c1ccccc1)C1CCCCC1` (centres undefined), the LD50 was 2670 mg/kg.

Consider `C[Se]C`, for which the LD50 is 2100 mg/kg.

As for `CCOc1cc(Cc2cnc(N)nc2N)cc(OCC)c1-n1cccc1`, the LD50 is 1420 mg/kg.

On to `O=C(Nc1ccc(Br)cc1)c1cc(Br)cc(Br)c1O`, for which the LD50 is 410 mg/kg.

As to `O=[N+]([O-])c1cc(Cl)cc2[nH]c(C(F)(F)F)nc12`, the median lethal dose (LD50) is 2.78 mg/kg.

Regarding `COc1ccccc1`, the LD50 was 3700 mg/kg.
